Data published in ChEMBL document CHEMBL1201862, “PubChem BioAssay data set” (2004).
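All cell lines were grown in 96-well plates and treated with compound for 48 hours. Here, GI50 denotes the concentration required for 50% inhibition of growth.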 The source made the active and inactive calls. No stated cut-off is given here; in the data, active = GI50 up to about 1.1 µM and inactive = higher.

Assays:
Test in all cases: inhibition of tumour cell growth, NCI panel, 48 h
[1] = tested on: A549
[2] = tested on: BT-549
[3] = tested on: DU-145
[4] = tested on: HOP-92
[5] = tested on: IGROV-1
[6] = tested on: LOX IMVI
[7] = tested on: MCF7
[8] = tested on: MDA-MB-231
[9] = tested on: MDA-MB-435
[10] = tested on: Malme-3M
[11] = tested on: NCI-H23
[12] = tested on: NCI-H522
[13] = tested on: NCI/ADR-RES
[14] = tested on: SK-MEL-2
[15] = tested on: SK-OV-3
[16] = tested on: SNB-19
[17] = tested on: SW-620
[18] = tested on: T47D
[19] = tested on: TK-10
[20] = tested on: UO-31

| SMILES | GI50 [1] | GI50 [2] | GI50 [3] | GI50 [4] | GI50 [5] | GI50 [6] | GI50 [7] | GI50 [8] | GI50 [9] | GI50 [10] | GI50 [11] | GI50 [12] | GI50 [13] | GI50 [14] | GI50 [15] | GI50 [16] | GI50 [17] | GI50 [18] | GI50 [19] | GI50 [20] |
| --- | --- | --- | --- | --- | --- | --- | --- | --- | --- | --- | --- | --- | --- | --- | --- | --- | --- | --- | --- | --- |
| CCC/N=C/c1cc(Cc2ccc(O)c(/C=N/CCC)c2)ccc1O | 17 µM (inactive) | 10.7 µM (inactive) | 4.61 µM (inactive) | 1.85 µM (inactive) | 4.09 µM (inactive) | 3.17 µM (inactive) | 2.36 µM (inactive) | 9.89 µM (inactive) | 3.47 µM (inactive) | 19.5 µM (inactive) | 6.46 µM (inactive) | 20.6 µM (inactive) | 17.2 µM (inactive) | 3 µM (inactive) | 18.5 µM (inactive) | 2.7 µM (inactive) | 3.55 µM (inactive) | 1.45 µM (inactive) | 11.1 µM (inactive) | 17.1 µM (inactive) |
| O=c1[nH]c2cc3cccnc3c(Cl)c2nc1C(F)(F)F | 41.4 µM (inactive) | 38.9 µM (inactive) | 54.8 µM (inactive) | 7.16 µM (inactive) | 12.6 µM (inactive) | 32.4 µM (inactive) | 28.3 µM (inactive) | 30.3 µM (inactive) | 33.7 µM (inactive) | 77.8 µM (inactive) | 25 µM (inactive) | 28.6 µM (inactive) | 33.3 µM (inactive) | 48.2 µM (inactive) | 57.3 µM (inactive) | 54.7 µM (inactive) | > 100 µM (inactive) | 33.6 µM (inactive) | 68.9 µM (inactive) | 27.7 µM (inactive) |
| CCC(C)N1CN(c2ccccc2)C2(CCN(CCCC3(c4ccc(F)cc4)OCCO3)CC2)C1=O (stereo not given) | 7.73 µM (inactive) | 2 µM (inactive) | 17.6 µM (inactive) | < 0.01 µM (active) | 16.5 µM (inactive) | 7.73 µM (inactive) | 3.3 µM (inactive) | 13.4 µM (inactive) | 18.8 µM (inactive) | 5.19 µM (inactive) | 3.34 µM (inactive) | 5.11 µM (inactive) | 13.3 µM (inactive) | 11.9 µM (inactive) | 21 µM (inactive) | 12.4 µM (inactive) | 11.6 µM (inactive) | 8.28 µM (inactive) | 7.5 µM (inactive) | 5.09 µM (inactive) |
| CC(C)(C)O/C=C1/C(=O)OC2C[C@@H](O[Si](C)(C)C(C)(C)C)CC12 (stereo not given in full) | 58.9 µM (inactive) | 56.5 µM (inactive) | 29.4 µM (inactive) | 43.7 µM (inactive) | 72.6 µM (inactive) | 36.6 µM (inactive) | 36.1 µM (inactive) | > 100 µM (inactive) | 77.6 µM (inactive) | 98.9 µM (inactive) | 39.7 µM (inactive) | 27.6 µM (inactive) | 55.1 µM (inactive) | > 100 µM (inactive) | > 100 µM (inactive) | 94.2 µM (inactive) | 54.3 µM (inactive) | 23.3 µM (inactive) | > 100 µM (inactive) | 52.2 µM (inactive) |
| O=CC(O)C(O)C(O)C(O)C(=O)NCCCCCCCCCCCCNC(=O)C(O)C(O)C(O)C(O)C=O (stereo not given) | > 100 µM (inactive) | > 100 µM (inactive) | > 100 µM (inactive) | > 100 µM (inactive) | > 100 µM (inactive) | > 100 µM (inactive) | > 100 µM (inactive) | > 100 µM (inactive) | > 100 µM (inactive) | > 100 µM (inactive) | > 100 µM (inactive) | > 100 µM (inactive) | > 100 µM (inactive) | > 100 µM (inactive) | > 100 µM (inactive) | > 100 µM (inactive) | > 100 µM (inactive) | > 100 µM (inactive) | > 100 µM (inactive) | > 100 µM (inactive) |
| CC1OC(O)C(O)C(O)C1O (stereo not given) | > 100 µM (inactive) | > 100 µM (inactive) | > 100 µM (inactive) | > 100 µM (inactive) | > 100 µM (inactive) | > 100 µM (inactive) | > 100 µM (inactive) | > 100 µM (inactive) | > 100 µM (inactive) | > 100 µM (inactive) | > 100 µM (inactive) | > 100 µM (inactive) | > 100 µM (inactive) | > 100 µM (inactive) | > 100 µM (inactive) | > 100 µM (inactive) | > 100 µM (inactive) | > 100 µM (inactive) | > 100 µM (inactive) | > 100 µM (inactive) |
| CC(C)CSCC1OC(n2cnc3c(N)nccc32)C(O)C1O (stereo not given) | > 100 µM (inactive) | > 100 µM (inactive) | > 100 µM (inactive) | > 72.9 µM (inactive) | > 100 µM (inactive) | > 100 µM (inactive) | > 100 µM (inactive) | > 100 µM (inactive) | > 100 µM (inactive) | > 100 µM (inactive) | > 100 µM (inactive) | 45.8 µM (inactive) | > 100 µM (inactive) | > 100 µM (inactive) | > 100 µM (inactive) | > 100 µM (inactive) | > 100 µM (inactive) | > 100 µM (inactive) | > 100 µM (inactive) | > 100 µM (inactive) |
